Laboratory results as given in patent publication US20230286970A1, “NOVEL OXADIAZOLE-BASED SELECTIVE HDAC6 INHIBITORS” (ITALFARMACO S.P.A., priority 2020, published 2023).

Legend:
Stability in rat plasma = details: after 4 hours, 37° C.
[1] = Stability to Phase I metabolism in human S9 liver fraction; details: after 90 minutes, 37° C.
[2] = Stability in human plasma; details: after 4 hours, 37° C.
Method: In order to evaluate the stability to circulating enzymes, test compounds were incubated in human and rat plasma at 37° C. in a thermostated oscillating bath. Each test compound was incubated at μM concentration (50 μM when the samples were analysed by UV/HPLC, 1 or 2 μM when the samples were analysed by LC-MS/MS) for 0, 15, 30 minutes and 1, 2 and 4 hours. The reaction was stopped placing samples on ice bath and adding acidified acetonitrile. After centrifugation (10 minutes at 14000 rpm) an aliquot of the supernatant was diluted with water, filtered with 0.45 μm regenerated cellulose syringe filters and injected in HPLC-UV or in LC-MS/MS. The percentage of the remaining amount at the various incubation times with respect to the initial amount were calculated. The half-life in plasma was also calculated.

[3] = Stability to Phase I metabolism in rat S9 liver fraction; details: after 90 minutes, 37° C.
[4] = tested on: α-tubulin acetylation in 697 cell line; test: In vitro α-tubulin acetylation in 697 cell line (ELISA); format: cell-based; details: 16 hours, read-out: fold increase @ 1 uM TubAc (ratio of acetylated tubulin and total tubulin towards control)
Method: The in vitro α-tubulin acetylation determination was evaluated on B 697 promyelocytic cell line.
The test molecules were diluted from 20 mM stock solution in DMSO with RPMI 10% FCS+0.01% DMSO medium at 20× concentration compared to the final concentration, added to the cells (15×10^6 cells in a total volume of 30 mL in RPMI medium 10% FCS+0.01% DMSO) to obtain the final concentrations of 1000, 333, 111, 37 nM and incubated at 37° C., 5% CO2 for 16 hours.
At the end of the incubation period, 5×10^6 cells were taken from each sample, centrifuged for 5 minutes at 1100 rpm and washed in 0.9% NaCl at 4° C. The resulting pellet was lysed by treating at 4° C. for 30 minutes with 150 μl of Complete Lysis-M buffer containing protease inhibitors (Complete Lysis-M Roche+Complete Tablets, Mini Easypack, cat: 4719956001) and phosphatase inhibitor cocktails (PhosStop Easypack, Roche, cat: 4906837001), then centrifuged 10 minutes at 14,000 rpm (20817×g). 0.3 μg of supernatant (total protein extract) were diluted in 100 μl of 1×PBS and immobilized in Maxisorp F96 NUN-IMMUNO Plate (Nunc MaxiSorp flat-bottom, Nunc, cat: 442404) at room temperature overnight. Plates were washed twice with Wash Buffer (PBS1×+0.005% tween 20) and saturated for 1 hour at room temperature with 300 μL of 1×PBS containing 10% FCS. After washing twice with Wash Buffer, the plates were incubated for two hours at room temperature in the presence of anti-acetylated-α-tubulin antibody (Monoclonal Anti-acetylated-tubulin clone 6-11B-1, mouse ascites fluid, Sigma, cat: T6793), 100 μl/well diluted 1:1000 in 1×PBS containing 10% FCS) or with total anti-α-tubulin antibody (Monoclonal Anti-alpha-tubulin produced in mouse, Sigma, cat: T6074). Following washing of the pates 5 times with Wash Buffer the secondary antibody conjugated with the enzyme HRP (Goat anti-Mouse IgG, IgM, IgA (H+L), Thermo Fisher Scientific, cat: A10668), diluted 1:1000 in 1×PBS+10% FBS was added at the volume of 100 μl/well.
After washing 4 times, 100 μl/well of TMB substrate kit was added for 10 minutes at room temperature in the dark. The reaction was stopped by adding 50 μl of 2N H2SO4. The plates were read at Multiskan Spectrum spectrophotometer at a wavelength of 450 nm.
The degree of acetylation was calculated by dividing the absorbance obtained for acetylated α-tubulin by the absorbance of total tubulin.
The results of tubulin acetylation, expressed as fold increase of ratio of acetylated α-tubulin/total α-tubulin, of each sample relative to the control sample (untreated) are summarized in table 6.

recombinant human HDAC1 = recombinant human HDAC1 (Homo sapiens (Human), UniProt Q13547); test: Enzymatic screening, HDAC1 inhibition (fluorogenic FdL_G substrate); format: biochemical
Method in brief: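 Recombinant human HDAC1 inhibition was measured fluorometrically using the FLUOR DE LYS-Green (FdL_G) substrate. Compounds at 8 doses (1% DMSO final) in Tris-HCl pH 8 buffer with NaCl, Tween-20 and glycerol were preincubated in triplicate with enzyme and 1 mg/mL BSA, then given substrate. Developer I plus 2 μM TSA was added, and fluorescence read after 25 minutes in the dark.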

recombinant human HDAC6 = recombinant human HDAC6 (Homo sapiens (Human), UniProt Q9UBN7); test: Enzymatic screening, HDAC6 inhibition (fluorogenic FdL_G substrate); format: biochemical
Method in brief: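 Enzyme was preincubated with compound (8 doses, triplicate, 1% DMSO) in 25 mM Tris-HCl pH 8, 130 mM NaCl, 0.05% Tween-20, 10% glycerol, with BSA. A FLUOR DE LYS-Green substrate was then added, and fluorescence was read after developer plus 2 μM TSA.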

recombinant human HDAC1, sequence (Q13547 whole entry): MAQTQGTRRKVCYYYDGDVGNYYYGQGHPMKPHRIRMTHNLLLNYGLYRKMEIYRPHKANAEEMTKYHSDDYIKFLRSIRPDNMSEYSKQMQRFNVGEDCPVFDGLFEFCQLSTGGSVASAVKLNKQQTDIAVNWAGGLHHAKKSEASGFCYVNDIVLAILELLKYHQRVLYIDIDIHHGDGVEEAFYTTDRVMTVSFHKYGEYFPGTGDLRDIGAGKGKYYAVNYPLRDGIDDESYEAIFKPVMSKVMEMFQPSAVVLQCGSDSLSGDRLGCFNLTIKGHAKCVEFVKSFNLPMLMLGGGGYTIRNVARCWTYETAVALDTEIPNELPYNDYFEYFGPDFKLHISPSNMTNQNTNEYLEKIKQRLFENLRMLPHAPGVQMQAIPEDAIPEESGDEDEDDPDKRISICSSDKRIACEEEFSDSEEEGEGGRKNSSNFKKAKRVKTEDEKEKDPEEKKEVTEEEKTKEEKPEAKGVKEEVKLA
recombinant human HDAC6, sequence (Q9UBN7 whole entry): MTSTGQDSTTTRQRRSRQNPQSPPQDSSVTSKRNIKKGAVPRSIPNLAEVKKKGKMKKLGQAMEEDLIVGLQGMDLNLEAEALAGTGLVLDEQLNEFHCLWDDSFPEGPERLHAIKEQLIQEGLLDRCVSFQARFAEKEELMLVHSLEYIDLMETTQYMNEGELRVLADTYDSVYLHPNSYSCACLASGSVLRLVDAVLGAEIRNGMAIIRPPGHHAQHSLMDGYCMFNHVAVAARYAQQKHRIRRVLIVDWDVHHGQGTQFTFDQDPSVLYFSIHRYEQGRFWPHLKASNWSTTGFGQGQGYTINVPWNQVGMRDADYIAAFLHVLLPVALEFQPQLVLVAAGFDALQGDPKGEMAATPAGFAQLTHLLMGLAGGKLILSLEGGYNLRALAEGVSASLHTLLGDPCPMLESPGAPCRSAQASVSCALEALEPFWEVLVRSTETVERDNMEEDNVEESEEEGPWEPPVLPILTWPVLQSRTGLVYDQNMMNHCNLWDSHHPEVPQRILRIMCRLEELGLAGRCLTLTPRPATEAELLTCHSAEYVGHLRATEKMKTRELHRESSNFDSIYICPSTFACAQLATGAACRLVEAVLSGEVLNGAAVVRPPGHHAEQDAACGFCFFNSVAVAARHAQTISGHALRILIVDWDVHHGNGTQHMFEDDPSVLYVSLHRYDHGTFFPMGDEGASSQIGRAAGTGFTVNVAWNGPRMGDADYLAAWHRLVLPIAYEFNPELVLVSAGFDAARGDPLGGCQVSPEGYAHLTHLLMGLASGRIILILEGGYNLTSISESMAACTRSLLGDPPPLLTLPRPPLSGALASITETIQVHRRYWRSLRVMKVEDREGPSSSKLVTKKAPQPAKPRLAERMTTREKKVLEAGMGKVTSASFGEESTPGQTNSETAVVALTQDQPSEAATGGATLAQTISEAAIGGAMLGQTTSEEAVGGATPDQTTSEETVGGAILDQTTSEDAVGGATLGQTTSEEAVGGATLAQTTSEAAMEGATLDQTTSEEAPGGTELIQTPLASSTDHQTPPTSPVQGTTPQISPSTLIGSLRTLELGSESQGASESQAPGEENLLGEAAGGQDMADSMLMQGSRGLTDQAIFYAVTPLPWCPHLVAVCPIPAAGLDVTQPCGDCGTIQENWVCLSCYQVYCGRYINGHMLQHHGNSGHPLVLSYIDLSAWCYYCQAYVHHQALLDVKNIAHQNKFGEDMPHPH

Structure (SMILES) | residual percentage in RAT PLASMA (Stability in rat plasma) [%] | residual percentage in HUMAN S9 FRACTION [1] [%] | residual percentage in HUMAN PLASMA [2] [%] | residual percentage in RAT S9 FRACTION [3] [%] | fold induction at 1 µM [4] | IC50 (recombinant human HDAC1) [nM] | IC50 (recombinant human HDAC6) [nM]
Nc1nc2ccc(-c3cn(Cc4ccc(-c5nnc(C(F)F)o5)cc4)nn3)cc2s1 [compound 14, 6-(1-(4-(5-(difluoromethyl)-1,3,4-oxadiazol-2-yl)benzyl)-1H-1,2,3-triazol-4-yl)benzo[d]thiazol-2-amine] | 83 | 93 | 72 | 95 | 19 | – | –
Nc1ccc(-c2cn(Cc3ccc(-c4nnc(C(F)F)o4)c(F)c3)nn2)cn1 [compound 15, 5-(1-(4-(5-(difluoromethyl)-1,3,4-oxadiazol-2-yl)-3-fluorobenzyl)-1H-1,2,3-triazol-4-yl)pyridin-2-amine] | 72 | 91 | 81 | 79 | 16 | – | –
NC(=O)c1cccc(-c2nnn(Cc3ccc(-c4nnc(C(F)F)o4)cn3)n2)c1 [compound 29, 3-(2-((5-(5-(difluoromethyl)-1,3,4-oxadiazol-2-yl)pyridin-2-yl)methyl)-2H-tetrazol-5-yl)benzamide] | – | – | – | – | 15 | – | –
CCC[C@H](c1ccc(-c2nnc(C(F)F)o2)cc1)n1cc(-c2ccc(N)nc2)nn1 [compound 143, (R)-5-(1-(1-(4-(5-(difluoromethyl)-1,3,4-oxadiazol-2-yl)phenyl)butyl)-1H-1,2,3-triazol-4-yl)pyridin-2-amine] | 80 | 89 | 60 | 71 | – | > 200000 | 60
Nc1ccc(-c2cn(Cc3ccc(-c4nnc(C(F)F)o4)cc3)cn2)cn1 [compound 151, 5-(1-(4-(5-(difluoromethyl)-1,3,4-oxadiazol-2-yl)benzyl)-1H-imidazol-4-yl)pyridin-2-amine] | 97 | 83 | 98 | 79 | – | > 200000 | 65
CC(c1ccc(-c2nnc(C(F)F)o2)cc1F)n1cc(-c2ccc(N)nc2)nn1 (centres unmarked) [compound 185, 5-(1-(1-(4-(5-(difluoromethyl)-1,3,4-oxadiazol-2-yl)-2-fluorophenyl)ethyl)-1H-1,2,3-triazol-4-yl)pyridin-2-amine] | 62 | 86 | 97 | 69 | – | > 200000 | 96
CC(c1ccc(-c2nnc(C(F)F)o2)c(F)c1)n1cc(-c2ccc(N)nc2)nn1 (centres unmarked) [compound 186, 5-(1-(1-(4-(5-(difluoromethyl)-1,3,4-oxadiazol-2-yl)-3-fluorophenyl)ethyl)-1H-1,2,3-triazol-4-yl)pyridin-2-amine] | 86 | 88 | 94 | 90 | – | > 200000 | 98
FC(F)c1nnc(-c2ccc(Cn3nnc(-c4csc5ccccc45)n3)cc2)o1 [compound 207, 2-(4-((5-(benzo[b]thiophen-3-yl)-2H-tetrazol-2-yl)methyl)phenyl)-5-(difluoromethyl)-1,3,4-oxadiazole] | 70 | 72 | 91 | 0 | – | 999000 | 129
Nc1ccc(-c2cnn(Cc3ccc(-c4nnc(C(F)F)o4)cc3)c2)cn1 [compound 211, 5-(1-(4-(5-(difluoromethyl)-1,3,4-oxadiazol-2-yl)benzyl)-1H-pyrazol-4-yl)pyridin-2-amine] | 89 | 63 | 91 | 80 | – | > 200000 | 147
CCCCC(c1ccc(-c2nnc(C(F)F)o2)cc1)n1cc(-c2ccc(N)nc2)nn1 (centres unmarked) [compound 235, 5-(1-(1-(4-(5-(difluoromethyl)-1,3,4-oxadiazol-2-yl)phenyl)pentyl)-1H-1,2,3-triazol-4-yl)pyridin-2-amine] | 84 | 92 | 90 | 63 | – | > 200000 | 202
Nc1ccc(-c2nc(Cc3ccc(-c4nnc(C(F)F)o4)cc3)no2)cn1 [compound 247, 5-(3-(4-(5-(difluoromethyl)-1,3,4-oxadiazol-2-yl)benzyl)-1,2,4-oxadiazol-5-yl)pyridin-2-amine] | 81 | 98 | 99 | 65 | – | > 200000 | 272
CCC[C@@H](c1ccc(-c2nnc(C(F)F)o2)cc1)n1cc(-c2ccc(N)nc2)nn1 [compound 250, (S)-5-(1-(1-(4-(5-(difluoromethyl)-1,3,4-oxadiazol-2-yl)phenyl)butyl)-1H-1,2,3-triazol-4-yl)pyridin-2-amine] | 82 | 88 | 91 | 89 | – | > 200000 | 293
O=C(Nc1cccc(-c2cn(Cc3ccc(-c4nnc(C(F)F)o4)cn3)cn2)c1)N1CCOCC1 [compound 264, N-(3-(1-((5-(5-(difluoromethyl)-1,3,4-oxadiazol-2-yl)pyridin-2-yl)methyl)-1H-imidazol-4-yl)phenyl)morpholine-4-carboxamide] | 94 | 93 | 80 | 92 | – | > 200000 | 19
FC(F)c1nnc(-c2ccc(Cn3cc(-c4ccc(NC5=NCCN5)cc4)cn3)cc2)o1 [compound 269, N-(4-(1-(4-(5-(difluoromethyl)-1,3,4-oxadiazol-2-yl)benzyl)-1H-pyrazol-4-yl)phenyl)-4,5-dihydro-1H-imidazol-2-amine] | 71 | 81 | 80 | 69 | – | > 200000 | 15
FC(F)c1nnc(-c2ccc(Cn3nnnc3-c3csc4ccccc34)cc2)o1 [compound 288, 2-(4-((5-(benzo[b]thiophen-3-yl)-1H-tetrazol-1-yl)methyl)phenyl)-5-(difluoromethyl)-1,3,4-oxadiazole] | 86 | 54 | 78 | 9 | – | > 200000 | 355
